Reference: ChEMBL document CHEMBL3832023, “DailyMed|setid=c8b93fc1-472c-4890-8d02-2ee4f7175c22 | BUTALBITAL, ASPIRIN, CAFFEINE AND CODEINE PHOSPHATE- butalbital, aspirin,caffeine and codeine phosphate capsule|Jerome Stevens Pharmaceuticals”

Legend:
[1] = (§1) Pharmacokinetic parameters for aspirin and salicylic acid following oral administration of Aspirin,butalbital,caffeine phosphate capsules.; format: ADME, organism-based; parameters: dose 650 mg, route oral; conditions: human, in vivo, dosed compound id 37, dosed compound name ASPIRIN, tissue Plasma; for half-life: dose 650 mg, route oral
Homo sapiens = test: as §1; format: ADME, organism-based; parameters: dose 650 mg, route oral; conditions: in vivo, po, dose 650 mg, dosed compound id 37, dosed compound name ASPIRIN, tissue Plasma

Cmax ([1]; po, 650 mg) [ng/mL] | Tmax (Homo sapiens) [min] | SMILES | half-life [1] [min]
– | – | O=C(O)c1ccccc1O [SALICYLIC ACID] | 180
8800 | 40 | CC(=O)Oc1ccccc1C(=O)O [ASPIRIN] | 12
